Here are results for eleven compounds from patent US20260083865A1, “PROSTATE SPECIFIC MEMBRANE ANTIGEN (PSMA) LIGANDS AND USE THEREOF” (priority 2022, published 2026).

Where two headings read alike, the source gives them in different places. Numbered stars: 1 amine (or outer) side, 2 acyl side, 3 side chain; on linkers, the order of the positions; unused ones are H or OH. Bridge positions count the residues as written; N and C are the ends. Square brackets hold non-standard residues; d marks the D form. Side chains are listed from the residue outwards. Peptide text beside a SMILES is read from it. * marks the point of attachment. DOTA = O=C(O)CN1CCN(CC(=O)O)CCN(CC(=O)*)CCN(CC(=O)O)CC1; Trp(5-Br) = N[C@@H](Cc1c[nH]c2ccc(Br)cc12)C(=O)O; X13 = C/N=C(/NC)N(C)CCC[C@H](N[*:1])C(=O)[*:2]; Phe(4-Cl) = N[C@@H](Cc1ccc(Cl)cc1)C(=O)O; Phe(4-Me) = Cc1ccc(C[C@H](N)C(=O)O)cc1; d(αMeD) = C[C@@](N)(CC(=O)O)C(=O)O; X1 = O=C(CC1CCN([*:1])CC1)[*:2]; Cit = NC(=O)NCCC[C@H](N)C(=O)O; Lys(Me) = CNCCCC[C@H](N)C(=O)O; Tle = CC(C)(C)[C@H](N)C(=O)O; αMeS = C[C@](N)(CO)C(=O)O; Deg = CCC(N)(CC)C(=O)O; AEEA = NCCOCCOCC(=O)O; Aib = CC(C)(N)C(=O)O; Ahx = NCCCCCC(=O)O

Assay [1] has as its target T1, PSMA-expressing C4-2 cells (Homo sapiens, UniProt Q04609).
T1 construct: PSMA-expressing C4-2 cells (ATCC, Cat. No. CRL-3314) were cultured in RPMI-1640; host or cells: C4-2 cells
In words: FACS binding assay (competition with 50 nM PSM-0183). The conditions noted are these: read-out: pIC50 [C4-2] CAT (converted). The procedure, abridged: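 Competition format: fluorescent tracer PSM-0183 (50 nM) displaced from PSMA on C4-2 cells by a test compound titration over 1 h at 4 °C. Bound tracer was quantified as flow-cytometric AF488 median fluorescence after washing. Four-parameter logistic fits of MFI data gave IC50 and pIC50.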

The target in assay [2] is T2, Fc-fusion protein of human PSMA (hPSMA-Fc) (Homo sapiens, UniProt Q04609).
T2 construct: purchased Acro Biosystems PSA-H5264
T2 sequence (Q04609 44-750 limits assumed): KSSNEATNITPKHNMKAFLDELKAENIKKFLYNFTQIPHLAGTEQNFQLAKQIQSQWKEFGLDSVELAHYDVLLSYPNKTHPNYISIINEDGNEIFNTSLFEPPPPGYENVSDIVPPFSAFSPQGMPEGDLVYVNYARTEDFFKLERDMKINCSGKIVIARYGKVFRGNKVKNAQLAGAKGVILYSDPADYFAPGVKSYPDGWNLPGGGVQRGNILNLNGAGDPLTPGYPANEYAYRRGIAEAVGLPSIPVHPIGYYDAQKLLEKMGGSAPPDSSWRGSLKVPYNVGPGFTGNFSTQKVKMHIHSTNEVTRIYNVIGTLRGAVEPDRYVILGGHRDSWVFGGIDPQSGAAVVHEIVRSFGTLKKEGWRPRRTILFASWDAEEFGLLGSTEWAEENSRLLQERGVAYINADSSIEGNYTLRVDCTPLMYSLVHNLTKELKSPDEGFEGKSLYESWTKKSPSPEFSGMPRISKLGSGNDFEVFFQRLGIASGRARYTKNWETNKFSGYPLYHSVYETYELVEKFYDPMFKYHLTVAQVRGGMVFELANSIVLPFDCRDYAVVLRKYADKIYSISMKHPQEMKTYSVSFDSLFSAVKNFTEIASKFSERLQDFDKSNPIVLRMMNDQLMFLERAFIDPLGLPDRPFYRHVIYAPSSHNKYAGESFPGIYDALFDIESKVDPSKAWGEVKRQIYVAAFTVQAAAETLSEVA
In words: Surface plasmon resonance assay (Biacore T200, single cycle kinetic). The conditions noted are these: hPSMA-Fc, 25° C., read-out: pKD CAT (converted). The class given is binding. The procedure, abridged:
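KD, expressed as pKD, came from 1:1 Langmuir fits of reference- and buffer-blank-subtracted SPR data. The runs were single-cycle kinetics at 25° C in HBST/0.1% DMSO over human PSMA-Fc, captured to ~1000 RU on a peptide-coated CM5 surface and regenerated with 10 mM glycine pH 1.5.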
A general note: Surface plasmon resonance follows binding to a sensor surface in real time, without labels.

The mark [3] stands for this setting: FACS binding, PSMA-expressing C4-2 cells, pIC50 category.
Setting [4] is: pIC50 category of FACS binding, C4-2 cells.
[5] abbreviates: pKD category for PSMA SPR activity assay.

T1 sequence (Q04609 whole entry): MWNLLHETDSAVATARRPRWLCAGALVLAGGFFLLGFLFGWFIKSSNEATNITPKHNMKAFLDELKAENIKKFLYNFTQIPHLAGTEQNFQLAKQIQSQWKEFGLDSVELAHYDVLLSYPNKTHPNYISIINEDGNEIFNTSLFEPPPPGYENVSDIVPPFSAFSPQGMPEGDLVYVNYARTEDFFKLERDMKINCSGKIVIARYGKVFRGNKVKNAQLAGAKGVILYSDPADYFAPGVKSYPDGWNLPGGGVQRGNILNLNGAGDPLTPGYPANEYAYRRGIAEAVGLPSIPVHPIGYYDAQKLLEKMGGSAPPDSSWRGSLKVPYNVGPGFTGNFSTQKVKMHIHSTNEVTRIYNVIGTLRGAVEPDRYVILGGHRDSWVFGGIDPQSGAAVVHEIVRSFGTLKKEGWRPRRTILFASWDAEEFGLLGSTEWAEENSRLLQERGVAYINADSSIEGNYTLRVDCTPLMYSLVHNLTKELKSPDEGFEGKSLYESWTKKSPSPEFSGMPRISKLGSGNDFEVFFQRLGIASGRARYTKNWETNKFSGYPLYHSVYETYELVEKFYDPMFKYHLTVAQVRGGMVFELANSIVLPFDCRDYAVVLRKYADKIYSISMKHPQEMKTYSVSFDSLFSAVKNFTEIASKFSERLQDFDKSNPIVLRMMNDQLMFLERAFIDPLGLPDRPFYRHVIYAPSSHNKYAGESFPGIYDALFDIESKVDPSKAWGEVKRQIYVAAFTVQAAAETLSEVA

Turning to `C/N=C(/NC)N(C)CCC[C@@H]1NC(=O)[C@H](CCCCNC)NC(=O)[C@@H](NC(=O)[C@H](Cc2ccc(Cl)cc2)NC(=O)C(C)(C)NC(=O)[C@@H](NC(=O)CC2CCN(C(=O)CN3CCN(CC(=O)O)CCN(CC(=O)O)CCN(CC(=O)O)CC3)CC2)[C@@H](C)O)CSSC[C@@H](C(=O)N[C@H](C(=O)N[C@H](C(N)=O)[C@@H](C)O)C(C)(C)C)NC(=O)[C@H](CC(N)=O)NC(=O)C(C)(C)NC1=O` [PSM-0355, DOTA-Cmp-Thr-Aib-Pcf-[Cys-Lys(Me)-RMe3-Aib-Asn-Cys]-Tle-Thr-NH2] ({DOTA}-[X1]T[Aib][Phe(4-Cl)]C[Lys(Me)][X13][Aib]NC[Tle]T-NH2; disulfide 5-10), the IC50 in assay [1] (setting [3]) was 0.2 to 1.26 µM. The Kd in assay [2] (PSMA SPR assay, pKD category) was below 0.0126 µM.
In the case of `CC[C@H](C)[C@H](NC(=O)CC1CCN(C(=O)CN2CCN(CC(=O)O)CCN(CC(=O)O)CCN(CC(=O)O)CC2)CC1)C(=O)NC(C)(C)C(=O)N[C@@H](Cc1ccccc1)C(=O)N[C@H]1CSSC[C@@H](C(=O)N[C@H](C(=O)N[C@H](C(N)=O)[C@@H](C)O)C(C)(C)C)NC(=O)[C@H](CC(N)=O)NC(=O)C(C)(C)NC(=O)[C@H](CCCNC(=N)N)NC(=O)[C@H](CCCCN)NC1=O` [PSM-0357, DOTA-Cmp-Ile-Aib-Phe-[Cys-Lys-Arg-Aib-Asn-Cys]-Tle-Thr-NH2] ({DOTA}-[X1]I[Aib]FCKR[Aib]NC[Tle]T-NH2; disulfide 5-10), the IC50 in assay [1] (setting [3]) was 0.2 to 1.26 µM. The Kd in assay [2] (PSMA SPR assay, pKD category) is 0.0126 to 0.126 µM.
Taken in the same sequence, the figures for `C[C@@H](O)[C@H](NC(=O)[C@@H](NC(=O)[C@@H]1CSSC[C@H](NC(=O)[C@H](Cc2c[nH]c3ccc(Br)cc23)NC(=O)C(C)(C)NC(=O)[C@@H](NC(=O)CC2CCN(C(=O)CN3CCN(CC(=O)O)CCN(CC(=O)O)CCN(CC(=O)O)CC3)CC2)[C@@H](C)O)C(=O)N[C@@H](CCCCN)C(=O)N[C@@H](CCCNC(N)=O)C(=O)NC(C)(C)C(=O)N[C@@H](CC(N)=O)C(=O)N1)C(C)(C)C)C(N)=O` [PSM-0359, DOTA-Cmp-Thr-Aib-5Brw-[Cys-Lys-Cit-Aib-Asn-Cys]-Tle-Thr-NH2] ({DOTA}-[X1]T[Aib][Trp(5-Br)]CK[Cit][Aib]NC[Tle]T-NH2; disulfide 5-10) were above 3.16 µM and above 0.501 µM.
Taken in the same sequence, the figures for `CC(=O)N[C@H](C(=O)NC(C)(C)C(=O)N[C@@H](Cc1ccccc1)C(=O)N[C@H]1CSSC[C@@H](C(=O)N[C@H](C(=O)N[C@H](C(=O)N[C@@H](CC(=O)O)C(N)=O)[C@@H](C)O)C(C)(C)C)NC(=O)[C@H](CC(N)=O)NC(=O)[C@H](C)NC(=O)[C@H](CCC(=O)O)NC(=O)[C@H](CCCCN)NC1=O)[C@@H](C)O` [PSM-0363, Ac-Thr-Aib-Phe-[Cys-Lys-Glu-Ala-Asn-Cys]-Tle-Thr-Asp-NH2] (Ac-T[Aib]FCKEANC[Tle]TD-NH2; disulfide 4-9) were 0.2 to 1.26 µM and below 0.0126 µM.
`C[C@@H](O)[C@H](NC(=O)[C@@H](NC(=O)[C@@H]1CSSC[C@H](NC(=O)[C@H](Cc2ccc(Cl)cc2)NC(=O)[C@@](C)(CC(=O)O)NC(=O)[C@@H](NC(=O)CC2CCN(C(=O)CN3CCN(CC(=O)O)CCN(CC(=O)O)CCN(CC(=O)O)CC3)CC2)[C@@H](C)O)C(=O)N[C@@H](CCCCN)C(=O)N[C@@H](CCCNC(=N)N)C(=O)NC(C)(C)C(=O)N[C@@H](CC(N)=O)C(=O)N1)C(C)(C)C)C(N)=O` [PSM-0366, DOTA-Cmp-Thr-amd-Pcf-[Cys-Lys-Arg-Aib-Asn-Cys]-Tle-Thr-NH2] ({DOTA}-[X1]T[d(αMeD)][Phe(4-Cl)]CKR[Aib]NC[Tle]T-NH2; disulfide 5-10): in assay [1] (setting [4]), the IC50 was 0.2 to 1.26 µM. For the same compound, the Kd in assay [2] (setting [5]) is 0.126 to 0.501 µM.
Taken in the same sequence, the figures for `CC(=O)N[C@H](C(=O)NC(C)(C)C(=O)N[C@@H](Cc1ccc(Cl)cc1)C(=O)N[C@H]1CSSC[C@@H](C(=O)N[C@H](C(N)=O)C(C)(C)C)NC(=O)[C@H](CC(N)=O)NC(=O)C(C)(C)NC(=O)[C@H](CCCNC(=N)N)NC(=O)[C@H](CCCCN)NC1=O)[C@@H](C)O` [PSM-0367, Ac-Thr-Aib-Pcf-[Cys-Lys-Arg-Aib-Asn-Cys]-Tle-NH2] (Ac-T[Aib][Phe(4-Cl)]CKR[Aib]NC[Tle]-NH2; disulfide 4-9) were below 0.2 µM and below 0.0126 µM.
Taken in the same sequence, the figures for `C[C@@H](O)[C@H](NC(=O)[C@@H](NC(=O)[C@@H]1CSSC[C@H](NC(=O)[C@H](Cc2ccccc2)NC(=O)C(C)(C)NC(=O)[C@@H](NC(=O)CCCCCNC(=O)CN2CCN(CC(=O)O)CCN(CC(=O)O)CCN(CC(=O)O)CC2)[C@@H](C)O)C(=O)N[C@@H](CCCCN)C(=O)N[C@@H](CCCNC(=N)N)C(=O)NC(C)(C)C(=O)N[C@@H](CC(N)=O)C(=O)N1)C(C)(C)C)C(N)=O` [PSM-0368, DOTA-Ahx-Thr-Aib-Phe-[Cys-Lys-Arg-Aib-Ass-Cys]-Tle-Thr-NH2] ({DOTA-Ahx}-T[Aib]FCKR[Aib]NC[Tle]T-NH2; disulfide 4-9) were below 0.2 µM and below 0.0126 µM.
Taken in the same sequence, the figures for `C[C@@H](O)[C@H](NC(=O)[C@@H](NC(=O)[C@@H]1CSSC[C@H](NC(=O)[C@H](Cc2ccc(Cl)cc2)NC(=O)[C@](C)(CO)NC(=O)[C@@H](NC(=O)CC2CCN(C(=O)CN3CCN(CC(=O)O)CCN(CC(=O)O)CCN(CC(=O)O)CC3)CC2)[C@@H](C)O)C(=O)N[C@@H](CCCCN)C(=O)N[C@@H](CCCNC(=N)N)C(=O)NC(C)(C)C(=O)N[C@@H](CC(N)=O)C(=O)N1)C(C)(C)C)C(N)=O` [PSM-0369, DOTA-Cmp-Thr-Ams-Pcf-[Cys-Lys-Arg-Aib-Asn-Cys]-Tle-Thr-NH2] ({DOTA}-[X1]T[αMeS][Phe(4-Cl)]CKR[Aib]NC[Tle]T-NH2; disulfide 5-10) were below 0.2 µM and below 0.0126 µM.
As for `CC(=O)N[C@H](C(=O)NC(C)(C)C(=O)N[C@@H](Cc1ccc(Cl)cc1)C(=O)N[C@H]1CSSC[C@@H](C(=O)N[C@H](C(=O)N[C@H](C(N)=O)[C@@H](C)O)C(C)(C)C)NC(=O)[C@H](CC(N)=O)NC(=O)[C@H](CCCCNC(=O)COCCOCCNC(=O)CN2CCN(CC(=O)O)CCN(CC(=O)O)CCN(CC(=O)O)CC2)NC(=O)[C@H](CCCNC(=N)N)NC(=O)[C@H](CCCCN)NC1=O)[C@@H](C)O` [PSM-0370, Ac-Thr-Aib-Pcf-[Cys-Lys-Arg-Lys(DOTA-020c)-Asn-Cys]-Tle-Thr-NH2] (Ac-T[Aib][Phe(4-Cl)]CKRK([AEEA-DOTA])NC[Tle]T-NH2; disulfide 4-9), the IC50 in assay [1] (setting [4]) is below 0.2 µM. The Kd in assay [2] (setting [5]) is below 0.0126 µM.
Consider `CC(=O)N[C@H](C(=O)NC(C)(C)C(=O)N[C@@H](Cc1ccc(C)cc1)C(=O)N[C@H]1CSSC[C@@H](C(=O)N[C@H](C(=O)N[C@H](C(N)=O)[C@@H](C)O)C(C)(C)C)NC(=O)[C@H](CC(N)=O)NC(=O)C(C)(C)NC(=O)[C@H](CCCNC(=N)N)NC(=O)[C@H](CCCCN)NC1=O)[C@@H](C)O` [PSM-0372, Ac-Thr-Aib-Pmf-[Cys-Lys-Arg-Aib-Asn-Cys]-Tle-Thr-NH2] (Ac-T[Aib][Phe(4-Me)]CKR[Aib]NC[Tle]T-NH2; disulfide 4-9), for which the IC50 in assay [1] (setting [4]) was below 0.2 µM. Further, the Kd in assay [2] (setting [5]) was below 0.0126 µM.
For `CCC1(CC)NC(=O)[C@H](CCCNC(=N)N)NC(=O)[C@H](CCCCN)NC(=O)[C@@H](NC(=O)[C@H](Cc2ccccc2)NC(=O)C(C)(C)NC(=O)[C@@H](NC(C)=O)[C@@H](C)O)CSSC[C@@H](C(=O)N[C@H](C(=O)N[C@H](C(N)=O)[C@@H](C)O)C(C)(C)C)NC(=O)[C@H](CC(N)=O)NC1=O` [PSM-0375, Ac-Thr-Aib-Phe-[Cys-Lys-Arg-Deg-Asn-Cys]-Tle-Thr-NH2] (Ac-T[Aib]FCKR[Deg]NC[Tle]T-NH2; disulfide 4-9) the same measures were below 0.2 µM and below 0.0126 µM.
